In PubChem BioAssay (NCI):
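Grown in 96-well plates, cells were treated for 48 hours with each compound at five concentrations. Insufficient inhibition: endpoint recorded as highest concentration tested. TGI: total growth inhibition.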

Legend:
Assay in all cases: growth of human tumour cells (NCI), 48 h
[1] = tested on: 786-0 renal
[2] = tested on: SNB-75 CNS
[3] = tested on: K-562 leukemia
[4] = tested on: HT29 colon
[5] = tested on: UO-31 renal
[6] = tested on: SK-MEL-2 melanoma
[7] = tested on: T-47D breast
[8] = tested on: HCT-15 colon
[9] = tested on: EKVX NSCLC
[10] = tested on: A549 NSCLC
[11] = tested on: SK-MEL-5 melanoma
[12] = tested on: UACC-257 melanoma
[13] = tested on: UACC-62 melanoma
[14] = tested on: SF-295 CNS
[15] = tested on: OVCAR-5 ovarian
[16] = tested on: SF-539 CNS
[17] = tested on: M14 melanoma
[18] = tested on: NCI-H460 lung
[19] = tested on: NCI/ADR-RES ovarian
[20] = tested on: HOP-62 NSCLC
[21] = tested on: PC-3 prostate
[22] = tested on: SN12C renal
[23] = tested on: HOP-92 NSCLC
[24] = tested on: OVCAR-3 ovarian
[25] = tested on: MDA-MB-435
[26] = tested on: COLO 205 colon
[27] = tested on: MDA-N
[28] = tested on: HCC-2998 colon
[29] = tested on: SK-OV-3 ovarian
[30] = tested on: MDA-MB-231 breast
[31] = tested on: CAKI-1 renal
[32] = tested on: A498 renal
[33] = tested on: CCRF-CEM leukemia
[34] = tested on: MCF7 breast
[35] = tested on: HCT-116 colon
[36] = tested on: HS 578T breast
[37] = tested on: IGROV1 ovarian
[38] = tested on: RXF 393 renal
[39] = tested on: NCI-H226 lung
[40] = tested on: ACHN renal
[41] = tested on: RPMI-8226 leukemia
[42] = tested on: SNB-19 CNS
[43] = tested on: NCI-H23 lung
[44] = tested on: DU-145 prostate
[45] = tested on: SW-620 colon
[46] = tested on: SK-MEL-28 melanoma
[47] = tested on: MALME-3M melanoma
[48] = tested on: BT-549 breast
[49] = tested on: TK-10 renal
[50] = tested on: SF-268 CNS
[51] = tested on: U251 CNS
[52] = tested on: KM12 colon
[53] = tested on: LOX IMVI melanoma
[54] = tested on: OVCAR-4 ovarian
[55] = tested on: OVCAR-8 ovarian
[56] = tested on: HL-60(TB) leukemia

## Cc1cccc2c(N)c3cccc(C(=O)NCC[N+](C)(C)Cc4ccc(S(C)(=O)=O)cc4)c3nc12
[1]
  TGI: > 100 µM
[2]
  TGI: > 100 µM
[3]
  TGI: > 52.2 µM
[4]
  TGI: > 100 µM
[5]
  TGI: > 100 µM
[6]
  TGI: > 100 µM
[7]
  TGI: > 100 µM
[8]
  TGI: > 100 µM
[9]
  TGI: > 100 µM
[10]
  TGI: > 100 µM
[11]
  TGI: > 100 µM
[12]
  TGI: > 100 µM
[13]
  TGI: > 100 µM
[14]
  TGI: > 100 µM
[15]
  TGI: > 100 µM
[16]
  TGI: > 100 µM
[17]
  TGI: > 100 µM
[18]
  TGI: > 100 µM
[19]
  TGI: > 100 µM
[20]
  TGI: > 100 µM
[21]
  TGI: > 100 µM
[22]
  TGI: > 100 µM
[23]
  TGI: > 100 µM
[24]
  TGI: > 100 µM
[25]
  TGI: > 100 µM
[26]
  TGI: > 100 µM
[27]
  TGI: > 100 µM
[28]
  TGI: > 100 µM
[29]
  TGI: > 100 µM
[30]
  TGI: > 100 µM
[31]
  TGI: > 100 µM
[32]
  TGI: 65 µM
[33]
  TGI: > 62 µM
[34]
  TGI: > 100 µM
[35]
  TGI: > 100 µM
[36]
  TGI: > 100 µM
[37]
  TGI: > 100 µM
[38]
  TGI: > 100 µM
[39]
  TGI: > 100 µM
[40]
  TGI: > 100 µM
[41]
  TGI: > 45.4 µM
[42]
  TGI: > 100 µM
[43]
  TGI: > 100 µM
[44]
  TGI: > 100 µM
[45]
  TGI: > 100 µM
[46]
  TGI: > 100 µM
[47]
  TGI: > 100 µM
[48]
  TGI: > 100 µM
[49]
  TGI: > 100 µM
[50]
  TGI: > 100 µM
[51]
  TGI: > 100 µM
[52]
  TGI: > 100 µM
[53]
  TGI: > 100 µM
[54]
  TGI: > 100 µM
[55]
  TGI: > 100 µM
[56]
  TGI: 38.6 µM
